Test results: publication PMC12095047, “Transport of phenoxyacetic acid herbicides by PIN-FORMED auxin transporters” (Nature Plants, 2025)
Where “and” joins values, the source holds several entries; their conditions need not be identical. Identical values can stand only once. Entries after “also recorded” stand apart in the source; their conditions may differ. Like-named read-outs stand apart in the source and are kept apart here.

Key:
Type in all cases: biochemical
[1] = target: T1, wild-type PIN8 proteoliposomes (Arabidopsis thaliana, UniProt Q9LFP6); assay: SSM electrophysiology, peak width (FWHM) of current response at LPR10 and LPR50; settings: LPR10 versus LPR50
T1 construct: made in house
T1 sequence (Q9LFP6 1-367): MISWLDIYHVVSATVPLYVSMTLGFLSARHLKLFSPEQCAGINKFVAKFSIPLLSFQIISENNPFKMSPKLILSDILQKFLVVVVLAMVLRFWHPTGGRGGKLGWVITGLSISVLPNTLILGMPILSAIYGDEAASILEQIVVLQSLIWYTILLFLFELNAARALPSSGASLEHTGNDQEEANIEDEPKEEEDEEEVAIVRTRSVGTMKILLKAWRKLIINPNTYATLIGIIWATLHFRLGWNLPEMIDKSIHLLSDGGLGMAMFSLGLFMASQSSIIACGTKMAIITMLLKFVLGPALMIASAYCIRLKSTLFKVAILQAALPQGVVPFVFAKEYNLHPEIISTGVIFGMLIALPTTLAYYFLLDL
Method: (§1) SSM, using a SURFE2R N1 from Nanion Technologies, was conducted as described. In brief, soy polar lipid mix (38% phosphatidyl choline, 30% phosphatidyl ethanolamine, 18% phosphatidyl inositol, 7% phosphatidic acid and 7% other soy lipids) and 1-palmitoyl-2-oleoyl-sn-glycero-3-phosphocholin were purchased from Avanti. Liposomes were prepared in Ringer solution without Ca^2+ (115 mM NaCl, 2.5 mM KCl, 1 mM NaHCO3, 10 mM HEPES pH7.4, 1 mM MgCl2) and homogenized using a Lipsofast (Avestin) with a […]. Triton X-100 was added to the liposomes to a final concentration of 1% (v/v). Protein was added to liposomes to a calculated lipid-to-protein ratio (LPR) of 10 unless stated otherwise. The detergent was removed using 400 mg ml^−1 Bio Beads (BioRad) overnight at 4 °C in a rotary shaker. Proteoliposomes were frozen in liquid nitrogen and kept at −80 °C until use. Proteoliposomes were diluted 1:5 in Ringer solution without Ca^2+, sonicated five times and then applied to the sensors by centrifugation (30 min, 3,000 g, 4 °C). Non-activating buffer was Ringer solution without Ca^2+ as described unless specified otherwise, and activating buffer contained the substrate of interest. In most instances we used a single-solution exchange experiment. In this case proteoliposomes, immobilized on the supported membrane, are kept in non-activating buffer as specified. At the beginning of the experiment the non-activating buffer is replaced with fresh identical non-activating buffer, and after 1 s, activating buffer (same buffer containing substrate) is added. After another second, the buffer is replaced with non-activating buffer again. Current response is recorded throughout the entire 3 s. For competition or inhibition, the respective compound was present in non-activating and activating solutions. Each experiment was performed on at least two individual sensors. On each sensor each measurement consists of three technical replicates where the mean is calculated. KD values were determined as described previously. Briefly, the binding current induced by 100 µM NPA was recorded in the presence of different concentrations of the substrate under investigation ranging between 0 µM and 1,000 µM present in the activating solution and the non-activating solution (Extended Data Fig. 5b). […] The maximum peak current was then plotted as a function of the concentration of the substrate under investigation and plotted against the degree of inhibition and fitted with a one-site binding model using GraphPad Prism V10.4.1 The half maximal concentration corresponds to the KD of the substrate under investigation.

[2] = target: T2, A. thaliana PIN8 (Arabidopsis thaliana, UniProt Q9LFP6); assay: SSM electrophysiology, peak current response on PIN8 proteoliposomes; settings: for Peak current: individual sensors
T2 construct: made in house
T2 sequence (Q9LFP6 1-367): T1 sequence (Q9LFP6 1-367)
Method: as §1

[3] = target: T3, PIN8 N117A (Arabidopsis thaliana, UniProt Q9LFP6, N117A); assay: SSM electrophysiology peak current, PIN8 N117A proteoliposomes; settings: for Relative Peak Current of WT (%): Substrate 2,4-D, replicates
T3 construct: made in house
Method: as §1
(§2) The protocol for expression and purification of AtPIN8 protein (Uniprot: Q9LFP6) in lauryl maltose neopentyl glycol was described previously. All point mutants were generated using Q5 Site-Directed mutagenesis kit (New England Biolabs). The C-flat Holey Carbon grids (CF-1.2/1.3, Cu-300 mesh) were glow-discharged for 45 s at 15 mA in a GloQube Plus (Quorum). […] After 1 h of incubation on ice, the sample was centrifuged at 16,000 g for 15 min before blotting to remove precipitation. A drop of 4 µl of each sample was applied to the glow-discharged grids, blotted with a Vitrobot Mark IV (ThermoFisher Scientific) using the following settings (temperature 4 °C, 100% humidity, blot time of 4 s, blot force −1) and vitrified in liquid ethane.

[4] = target: T4, PIN8 N223A (Arabidopsis thaliana, UniProt Q9LFP6, N223A); settings: N223A
T4 construct: made in house
Method: as §1, §2

[5] = target: T5, PIN8 I51Y (Arabidopsis thaliana, UniProt Q9LFP6, I51Y); settings: Michaelis–Menten fit
T5 construct: made in house
Method: as §1, §2

[6] = target: T6, PIN8 S55A/S146A (Arabidopsis thaliana, UniProt Q9LFP6, S146A/S55A); settings: Michaelis–Menten fit
T6 construct: made in house
Method: as §1, §2

[7] = target: T7, PIN8 S146A (Arabidopsis thaliana, UniProt Q9LFP6, S146A); settings: for Peak current: S146A, individual sensors
T7 construct: made in house
Method: as §1, §2

[8] = target: T8, PIN8 Y150F (Arabidopsis thaliana, UniProt Q9LFP6, Y150F); settings: PIN8 Y150F, Michaelis–Menten fit
T8 construct: made in house
Method: as §1, §2

[9] = target: T9, PIN8 Y150A (Arabidopsis thaliana, UniProt Q9LFP6, Y150A); settings: for Peak current: Y150A, individual sensors
T9 construct: made in house
Method: as §1, §2

[10] = WT PIN8 proteoliposomes, Michaelis–Menten fit
[11] = read-out: EC50 of peak current response

T3 sequence (Q9LFP6 whole entry N117A): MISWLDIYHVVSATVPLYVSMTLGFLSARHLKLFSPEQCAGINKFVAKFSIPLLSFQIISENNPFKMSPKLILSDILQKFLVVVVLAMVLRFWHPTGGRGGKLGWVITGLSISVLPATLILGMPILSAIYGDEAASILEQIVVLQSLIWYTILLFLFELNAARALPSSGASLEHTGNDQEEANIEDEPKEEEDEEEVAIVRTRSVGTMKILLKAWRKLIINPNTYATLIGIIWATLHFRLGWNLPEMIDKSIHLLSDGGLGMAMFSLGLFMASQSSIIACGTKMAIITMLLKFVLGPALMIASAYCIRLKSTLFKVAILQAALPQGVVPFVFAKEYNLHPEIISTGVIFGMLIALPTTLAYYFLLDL
T7 sequence (Q9LFP6 whole entry S146A): as the sequence (Q9LFP6 whole entry N117A) above, with A117N, S146A counted along it
T9 sequence (Q9LFP6 whole entry Y150A): as the sequence (Q9LFP6 whole entry N117A) above, with A117N, Y150A counted along it
T6 sequence (Q9LFP6 whole entry S55A/S146A): as the sequence (Q9LFP6 whole entry N117A) above, with S55A, A117N, S146A counted along it
T8 sequence (Q9LFP6 whole entry Y150F): as the sequence (Q9LFP6 whole entry N117A) above, with A117N, Y150F counted along it
T5 sequence (Q9LFP6 whole entry I51Y): as the sequence (Q9LFP6 whole entry N117A) above, with I51Y, A117N counted along it
T4 sequence (Q9LFP6 whole entry N223A): as the sequence (Q9LFP6 whole entry N117A) above, with A117N, N223A counted along it

In the case of `O=C(O)COc1ccc(Cl)cc1Cl` [2,4-D, 2,4-dichlorophenoxyacetic acid], the “peak width of SSM-based current response as a function of lipid-to-protein ratio (LPR)” value [1] is reported as “vary with lipid-to-protein ratio (LPR)”, the Peak current ([2]; 100 μM 2,4-D, absence of NPA) is reported as 3.226 nA and 5.875 nA and the Peak current ([2]; 100 μM 2,4-D, presence of 20 µM NPA) is reported as 0.9715 nA and 1.501 nA and 1.34 nA. The EC50 [2, 10] was 180 µM and 179 µM, the “maximal current Imax” value [2, 10] was 17 ± 2 nA and the Peak current ([2]; WT, 5 µM substrate) was 0.6835 nA and 0.6464 nA and 0.7573 nA. The Peak current ([2]; WT, 20 µM substrate) was 2.106 nA and 1.934 nA and 2.262 nA, the Peak current ([2]; WT, 50 µM substrate) was 4.032 nA and 3.705 nA and the Peak current ([2]; WT, 2000 µM substrate) was 15.4919 nA and 14.1952 nA and 17.3107 nA. The “current response / function of PIN8 N117A” value ([3]; N117A mutation) was “abolishes the current response; also recorded: abolishes function”, the “Relative Peak Current of WT (%)” value ([3]; 2mM) was 22.8804% and 23.9685% and 24.9449% and 20.0988% and the “Relative Peak Current of WT (%)” value [3] was 9.311% and 12.1121% and 13.3294% and 14.1031%. For the same compound, the “fold-change difference to the respective EC50 of wildtype PIN8” value [4] was “completely abolishes binding”, the Imax [5] was 3 ± 0.8 nA and the EC50 [5, 11] was 641 ± 77 µM. It also gave an Imax [6] of 9 ± 2 nA, an EC50 [6, 11] of 38 ± 6 µM and an Imax ([7]; PIN8 S146A, Michaelis–Menten fit) of 8 ± 0.9 nA. The EC50 ([7]; PIN8 S146A, Michaelis–Menten fit, read-out: EC50 of peak current response) was 164 ± 67 µM, the Peak current ([7]; 5 µM substrate) was 0.446 nA and 0.486 nA and 0.471 nA and 0.573 nA and the Peak current ([7]; 20 µM substrate) was 1.337 nA and 0.845 nA and 1.226 nA and 1.49 nA. For the same compound, the Peak current ([7]; 50 µM substrate) was 2.387 nA and 1.739 nA and 2.167 nA and 2.694 nA, the Peak current ([7]; 100 µM substrate) was 3.422 nA and 2.581 nA and 3.052 nA and 3.828 nA and the Peak current ([7]; 500 µM substrate) was 6.088 nA and 4.842 nA and 5.334 nA and 6.787 nA. The Peak current ([7]; 1000 µM substrate) was 7.15 nA and 6.069 nA and 6.109 nA and 7.864 nA, the Peak current ([7]; 2000 µM substrate) was 8.119 nA and 7.96 nA and 6.88 nA and 9.033 nA and the Imax [8] was 8 ± 2 nA. For the same compound, the EC50 [8, 11] was 816 ± 275 µM, the Imax ([9]; PIN8 Y150A, Michaelis–Menten fit) was 5 ± 1 nA and the EC50 ([9]; PIN8 Y150A, Michaelis–Menten fit, read-out: EC50 of peak current response) was 684 ± 256 µM. For the same compound, the Peak current ([9]; 5 µM substrate) was 0.1509 nA and 0.05154 nA and 0.05368 nA and 0.1258 nA, the Peak current ([9]; 20 µM substrate) was 0.08307 nA and 0.2336 nA and 0.2155 nA and 0.2901 nA and the Peak current ([9]; 50 µM substrate) was 0.3395 nA and 0.5519 nA and 0.4679 nA and 0.5665 nA. The Peak current ([9]; 100 µM substrate) was 0.6832 nA and 0.8682 nA and 0.7895 nA and 0.907 nA, the Peak current ([9]; 500 µM substrate) was 2.171 nA and 2.337 nA and 2.071 nA and 2.343 nA and the Peak current ([9]; 1000 µM substrate) was 3.151 nA and 3.173 nA and 2.762 nA and 3.101 nA. For the same compound, the Peak current ([9]; 2000 µM substrate) was 4.437 nA and 4.148 nA and 3.583 nA and 4.038 nA.
